Reference: patent publication US9108963B2, “Pyrazolopyridine, pyrazolopyrazine, pyrazolopyrimidine, pyrazolothiophene and pyrazolothiazole compounds as MGLUR4 allosteric potentiators, compositions, and methods of treating neurological dysfunction” (Vanderbilt University, priority 2010, dated 2015)
Like-named read-outs stand apart in the source and are kept apart here.

Tests used:
mGluR4 = mGluR4 (UniProt Q14833); test: mGluR4 potentiation assay (Ca2+ or thallium flux fluorescence, agonist EC20); type: cell-based, human or rat
Method: The disclosed compounds and compositions can be evaluated for their ability to act as a potentiator of metabotropic glutamate receptor activity, in particular mGluR4 activity, by any suitable known methodology known in the art. For example, Chinese Hamster Ovary (CHO) cells transfected with human mGluR4 or HEK cells co-transfected with rat mGluR4 and the G-protein regulated Inwardly Rectifying Potassium channel (GIRK) were plated in clear bottom assay plates for assay in a Hamamatsu FDSS Fluorometric Plate Reader. The cells were loaded with either a Ca2+-sensitive fluorescent dye or the thallium responsive dye and the plates were washed and placed into a suitable kinetic plate reader. For human mGluR4 assays, a fluorescence baseline was established for 3-5 seconds, the disclosed compounds were then added to the cells, and the response in cells was measured. Approximately two and a half minutes later, a concentration of mGluR4 orthosteric agonist (e.g. glutamate or L-AP4) eliciting approximately 20% (EC20) of the maximal agonist response was added to the cells, and the response was measured. Two minutes later, a concentration of mGluR4 agonist (e.g. glutamate or L-AP4) eliciting 80% (EC80) of the maximal agonist response was added to the cells, and the response was measured. For rat mGluR4/GIRK experiments, a baseline was established for approximately five seconds, disclosed compounds were added, and either an EC20 or EC80 concentration of agonist was added approximately two and one half minutes later.
The above described assay operated in two modes. In the first mode, a range of concentrations of the disclosed compounds are added to cells, followed by a single fixed concentration of agonist. If the compound acts as a potentiator, an EC50 value for potentiation and a maximum extent of potentiation by the compound at this concentration of agonist is determined by non-linear curve fitting. If the compound acts as a noncompetitive antagonist, an IC50 value is determined by non-linear curve fitting. In the second mode, several fixed concentrations of the disclosed compounds are added to various wells on a plate, followed by a range in concentrations of agonist for each concentration of disclosed compound. The EC50 values for the agonist at each concentration of compound are determined by non-linear curve fitting. A decrease in the EC50 value of the agonist with increasing concentrations of the sample compound (a leftward shift of the agonist concentration-response curve) is an indication of the degree of mGluR4 potentiation at a given concentration of the sample compound. A decrease in the maximal response of the agonist with increasing concentrations of the sample compounds, with or without a rightward shift in agonist potency, is an indication of the degree of noncompetitive antagonism at mGluR4. The second mode also indicates whether the sample compounds also affect the maximum response to mGluR4 to agonists.

mGluR5 = biological target: T1, mGluR5 (Rattus norvegicus, UniProt P31424); test: mGluR5 negative allosteric modulation, decrease in response to non-maximal glutamate in HEK cells; type: cell-based; conditions: Table 3; read-out: mGlu5 IC50
T1 construct: expressed in transfected cells; host or cells: human embryonic kidney (HEK) cells
From the text: Embodiments of the present invention are also mGluR5 negative allosteric modulators. Accordingly, in one aspect, the invention relates to compounds that are also useful as negative allosteric modulators of the metabotropic glutamate receptor subtype 5 (mGluR5). Negative allosteric modulators are non-competitive antagonists and can include a range of maximal antagonist activity from partial antagonists to inverse agonists. In one aspect, the present invention relates to compounds that allosterically modulate mGluR5 receptor activity, affecting the sensitivity of mGluR5 receptors to agonists without acting as orthosteric agonists themselves. […] The compounds of the invention can be useful in the treatment neurological and psychiatric disorders associated with glutamate dysfunction and other diseases in which metabotropic glutamate receptors are involved, as further described herein. […] In further aspect, the human embryonic kidney cells are transfected with human mGluR5. In yet a further aspect, human embryonic kidney cells are transfected with mGluR5 of a mammal.
In further aspect, the human embryonic kidney cells are transfected with human mGluR5. In yet a further aspect, human embryonic kidney cells are transfected with mGluR5 of a mammal.

[1] = Table 2, potentiation of mGluR4 agonist response, read-out: EC50

T1 sequence (P31424 21-1203): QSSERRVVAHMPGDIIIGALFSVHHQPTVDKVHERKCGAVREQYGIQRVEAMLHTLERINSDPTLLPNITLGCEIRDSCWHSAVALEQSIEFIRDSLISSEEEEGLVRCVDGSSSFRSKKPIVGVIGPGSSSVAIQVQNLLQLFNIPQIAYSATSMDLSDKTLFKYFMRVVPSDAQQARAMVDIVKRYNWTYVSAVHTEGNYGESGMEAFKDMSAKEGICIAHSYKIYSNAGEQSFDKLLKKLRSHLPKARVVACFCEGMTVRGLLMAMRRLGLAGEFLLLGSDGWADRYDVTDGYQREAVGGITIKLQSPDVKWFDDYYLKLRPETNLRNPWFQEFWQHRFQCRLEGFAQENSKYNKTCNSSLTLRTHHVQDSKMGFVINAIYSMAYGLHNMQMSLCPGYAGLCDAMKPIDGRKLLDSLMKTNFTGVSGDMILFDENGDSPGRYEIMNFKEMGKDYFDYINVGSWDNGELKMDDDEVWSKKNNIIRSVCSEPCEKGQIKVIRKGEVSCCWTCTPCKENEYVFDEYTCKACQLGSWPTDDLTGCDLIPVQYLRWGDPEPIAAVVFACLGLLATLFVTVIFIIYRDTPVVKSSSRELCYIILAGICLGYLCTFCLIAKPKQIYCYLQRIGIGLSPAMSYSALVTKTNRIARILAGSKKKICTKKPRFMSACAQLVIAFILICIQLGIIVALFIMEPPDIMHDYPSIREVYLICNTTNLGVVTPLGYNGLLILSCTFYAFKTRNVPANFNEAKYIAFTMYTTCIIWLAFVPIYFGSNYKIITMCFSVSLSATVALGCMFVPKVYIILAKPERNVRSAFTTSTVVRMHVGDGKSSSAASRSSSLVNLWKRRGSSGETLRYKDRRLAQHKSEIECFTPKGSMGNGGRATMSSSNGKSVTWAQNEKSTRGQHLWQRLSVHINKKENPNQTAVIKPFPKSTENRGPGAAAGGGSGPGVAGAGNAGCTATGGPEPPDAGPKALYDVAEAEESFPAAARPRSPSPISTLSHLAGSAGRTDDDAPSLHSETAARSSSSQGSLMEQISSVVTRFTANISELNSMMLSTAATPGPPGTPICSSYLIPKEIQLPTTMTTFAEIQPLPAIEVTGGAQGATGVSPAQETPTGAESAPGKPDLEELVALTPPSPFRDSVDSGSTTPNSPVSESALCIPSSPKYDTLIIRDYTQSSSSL

Compound	EC50 (mGluR4; [1]) [nM]	EC50 (mGluR4; Table 3, read-out: mGlu4 EC50) [nM]	IC50 (mGluR5) [nM]
FC(F)(F)c1ccnc(Oc2ccc(Nc3n[nH]c4cccnc34)cc2Cl)c1 [Example 97, N-(3-chloro-4-((4-(trifluoromethyl)pyridin-2-yl)oxy)phenyl)-1H-pyrazolo[4,3-b]pyridin-3-amine]	497	–	–
Fc1cccnc1Oc1ccc(Nc2n[nH]c3cccnc23)cc1Cl [Example 98, N-(3-chloro-4-((3-fluoropyridin-2-yl)oxy)phenyl)-1H-pyrazolo[4,3-b]pyridin-3-amine]	635	–	–
CC(Oc1ccc(Nc2n[nH]c3cccnc23)cc1Cl)c1ccccc1 (stereo not drawn) [Example 100, N-(3-chloro-4-(1-phenylethoxy)phenyl)-1H-pyrazolo[4,3-b]pyridin-3-amine]	1600	–	–
Clc1cc(Nc2n[nH]c3cccnc23)ccc1OCc1ccncc1 [Example 101, N-(3-chloro-4-(pyridin-4-ylmethoxy)phenyl)-1H-pyrazolo[4,3-b]pyridin-3-amine]	270	–	–
Clc1ccccc1COc1ccc(Nc2n[nH]c3cccnc23)cc1Cl [Example 104]	1500	–	–
Clc1cc(Nc2n[nH]c3cccnc23)ccc1OCC1CCCC1 [Example 105, N-(3-chloro-4-(cyclopentylmethoxy)phenyl)-1H-pyrazolo[4,3-b]pyridin-3-amine]	400	–	–
Clc1cc(Nc2n[nH]c3cccnc23)ccc1OC1CCCCC1 [Example 106, N-(3-chloro-4-(cyclohexyloxy)phenyl)-1H-pyrazolo[4,3-b]pyridin-3-amine]	470	–	–
Clc1cc(Nc2n[nH]c3cccnc23)ccc1OCc1ncccn1 [Example 108, N-(3-chloro-4-(pyrimidin-2-ylmethoxy)phenyl)-1H-pyrazolo[4,3-b]pyridin-3-amine]	1190	–	–
Fc1cncc(Oc2ccc(Nc3n[nH]c4cccnc34)cc2Cl)c1 [Example 112, N-(3-chloro-4-((5-fluoropyridin-3-yl)oxy)phenyl)-1H-pyrazolo[4,3-b]pyridin-3-amine]	611	–	–
Cc1cc(Nc2n[nH]c3cccnc23)ccc1Oc1ncccn1 [Example 113, N-(3-methyl-4-(pyrimidin-2-yloxy)phenyl)-1H-pyrazolo[4,3-b]pyridin-3-amine]	265	–	–
Clc1cc(Nc2n[nH]c3cccnc23)ccc1Nc1ccccn1 [Example 114, 2-chloro-N4-(1H-pyrazolo[4,3-b]pyridin-3-yl)-N1-(pyridin-2-yl)benzene-1,4-diamine]	–	33.5	582
Clc1cc(Nc2n[nH]c3cccnc23)ccc1Nc1cc2ccccc2cn1 [Example 115, 2-chloro-N1-(isoquinolin-3-yl)-N4-(1H-pyrazolo[4,3-b]pyridin-3-yl)benzene-1,4-diamine]	–	37.2	–
Clc1cc(Nc2n[nH]c3cccnc23)ccc1Nc1ncccn1 [Example 118, 2-chloro-N4-(1H-pyrazolo[4,3-b]pyridin-3-yl)-N1-(pyrimidin-2-yl)benzene-1,4-diamine]	–	43.9	3600
Cc1ccc(Nc2ccc(Nc3n[nH]c4cccnc34)cc2Cl)nc1 [Example 119, 2-chloro-N1-(5-methylpyridin-2-yl)-N4-(1H-pyrazolo[4,3-b]pyridin-3-yl)benzene-1,4-diamine]	–	16.9	590
Cc1cccc(Nc2ccc(Nc3n[nH]c4cccnc34)cc2Cl)n1 [Example 120, 2-chloro-N1-(6-methylpyridin-2-yl)-N4-(1H-pyrazolo[4,3-b]pyridin-3-yl)benzene-1,4-diamine]	–	31.5	550
FC(F)(F)c1ccnc(Nc2ccc(Nc3n[nH]c4cccnc34)cc2Cl)c1 [Example 121, 2-chloro-N4-(1H-pyrazolo[4,3-b]pyridin-3-yl)-N1-(4-(trifluoromethyl)pyridin-2-yl)benzene-1,4-diamine]	–	56.9	–
COc1ccnc(Nc2ccc(Nc3n[nH]c4cccnc34)cc2Cl)n1 [Example 123, 2-chloro-N1-(4-methoxypyrimidin-2-yl)-N4-(1H-pyrazolo[4,3-b]pyridin-3-yl)benzene-1,4-diamine]	–	25.5	670
FC(F)(F)c1cccnc1Nc1ccc(Nc2n[nH]c3cccnc23)cc1Cl [Example 124, 2-chloro-N4-(1H-pyrazolo[4,3-b]pyridin-3-yl)-N1-(3-(trifluoromethyl)pyridin-2-yl)benzene-1,4-diamine]	–	1560	1540
Clc1cc(Nc2n[nH]c3cccnc23)ccc1Nc1ncc2ccccc2n1 [Example 125, 2-chloro-N4-(1H-pyrazolo[4,3-b]pyridin-3-yl)-N1-(quinazolin-2-yl)benzene-1,4-diamine]	–	21.6	–
Clc1cc(Nc2n[nH]c3cccnc23)ccc1Nc1nccc2cccnc12 [Example 128, 2-chloro-N1-(1,7-naphthyridin-8-yl)-N4-(1H-pyrazolo[4,3-b]pyridin-3-yl)benzene-1,4-diamine]	–	455	–
Cc1cc(Nc2n[nH]c3cccnc23)ccc1Nc1ncccn1 [Example 130, 2-methyl-N4-(1H-pyrazolo[4,3-b]pyridin-3-yl)-N1-(pyrimidin-2-yl)benzene-1,4-diamine]	–	235	–

Continued, values first:

EC50 (mGluR4; [1]) [nM]	EC50 (mGluR4; Table 3, read-out: mGlu4 EC50) [nM]	IC50 (mGluR5) [nM]	Compound
180	–	–	Fc1ccccc1COc1ccc(Nc2n[nH]c3cccnc23)cc1Cl [Example 99]
400	–	–	Clc1cc(Nc2n[nH]c3cccnc23)ccc1OCc1cccnc1 [Example 102, N-(3-chloro-4-(pyridin-3-ylmethoxy)phenyl)-1H-pyrazolo[4,3-b]pyridin-3-amine]
360	–	–	Clc1cc(Nc2n[nH]c3cccnc23)ccc1OCc1nccs1 [Example 103, N-(3-chloro-4-(thiazol-2-ylmethoxy)phenyl)-1H-pyrazolo[4,3-b]pyridin-3-amine]
610	–	–	C[C@H](Oc1ccc(Nc2n[nH]c3cccnc23)cc1Cl)c1ccccn1 [Example 107, (S)-N-(3-chloro-4-(1-(pyridin-2-yl)ethoxy)phenyl)-1H-pyrazolo[4,3-b]pyridin-3-amine]
1000	–	–	Clc1cc(Nc2n[nH]c3cccnc23)ccc1OC1CCCc2cccnc21 (stereo not drawn) [Example 109, N-(3-chloro-4-((5,6,7,8-tetrahydroquinolin-8-yl)oxy)phenyl)-1H-pyrazolo[4,3-b]pyridin-3-amine]
1230	–	–	C[C@H](Oc1ccc(Nc2n[nH]c3cccnc23)cc1Cl)c1ccncc1 [Example 110, (S)-N-(3-chloro-4-(1-(pyridin-4-yl)ethoxy)phenyl)-1H-pyrazolo[4,3-b]pyridin-3-amine]
84.8	–	–	N#Cc1cncc(Oc2ccc(Nc3n[nH]c4cccnc34)cc2Cl)c1 [Example 111, 5-(4-((1H-pyrazolo[4,3-b]pyridin-3-yl)amino)-2-chlorophenoxy)nicotinonitrile]
–	82.5	2430	Clc1cccc(Nc2ccc(Nc3n[nH]c4cccnc34)cc2Cl)n1 [Example 116, 2-chloro-N1-(6-chloropyridin-2-yl)-N4-(1H-pyrazolo[4,3-b]pyridin-3-yl)benzene-1,4-diamine]
–	30.6	100	Clc1cc(Nc2n[nH]c3cccnc23)ccc1Nc1cnccn1 [Example 117, 2-chloro-N1-(pyrazin-2-yl)-N4-(1H-pyrazolo[4,3-b]pyridin-3-yl)benzene-1,4-diamine]
–	162	–	Clc1cc(Nc2n[nH]c3cccnc23)ccc1Nc1cnc2ccccc2c1 [Example 122, 2-chloro-N4-(1H-pyrazolo[4,3-b]pyridin-3-yl)-N1-(quinolin-3-yl)benzene-1,4-diamine]
